Data as given in patent US20100221763A1, “Specific Acceptors for Transferases to Saccharides and Method for Obtaining and Using Same” (Health Research, Inc, priority 2005, published 2010).
Several values for one entry are separate records, joined by “and”; a condition that tells them apart may be missing. Identical values can stand only once.

Experiments:
[1] = target: T1, Rat recombinant α2,3(O)ST (Rattus norvegicus, UniProt Q11205); assay: Sialyltransferase assay with cloned α2,3(O)ST; format: biochemical; settings: for acceptor efficiency for cloned α2,3(O)ST: 0.75 mM, compared to 3-O-MeGalβ1,4GlcNAcβ1,6(Galβ1,3)GalNAcα-O-Bn; for Sialyltransferase activity (%) Cloned α2,3(O)ST: Table I, [14C] sialylated product quantitated on Biogel P2 column
T1 construct: purchased Calbiochem
T1 sequence (Q11205 1-350): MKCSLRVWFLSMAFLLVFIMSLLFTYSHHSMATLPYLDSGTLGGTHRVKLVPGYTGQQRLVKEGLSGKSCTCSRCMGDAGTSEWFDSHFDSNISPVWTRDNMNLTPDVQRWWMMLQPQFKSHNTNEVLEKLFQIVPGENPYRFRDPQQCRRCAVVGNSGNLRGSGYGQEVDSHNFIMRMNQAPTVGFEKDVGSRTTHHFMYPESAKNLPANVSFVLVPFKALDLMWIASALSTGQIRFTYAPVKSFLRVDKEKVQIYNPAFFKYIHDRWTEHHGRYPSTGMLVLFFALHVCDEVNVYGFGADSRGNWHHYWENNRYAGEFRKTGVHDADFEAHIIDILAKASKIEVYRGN

[2] = target: T1, Rat recombinant α2,3(O)ST; assay: Sialyltransferase assay with cloned α2,3(O)ST; format: biochemical; settings: for Km / Vmax: CMP-NeuAc 150 μM, Lineweaver-Burke plot
[3] = test system: LNCaP α2,3(O)ST; assay: Sialyltransferase assay with LNCaP cell extract; format: biochemical, human
Method in brief: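 LNCaP Triton X-100 extract (5 mg protein/ml; 0.1M Tris-maleate pH6.3) incubated with acceptor (typically 7.5 mM) and CMP-[9-3H]NeuAc (typically 0.2 μCi) in 0.1M Na cacodylate pH6.0, 2 h at 37 °C, in duplicate. Radioactive product separated on Dowex-1-formate, Sep-Pak C18 or Biogel P2 and counted by scintillation; blank without acceptor subtracted.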

[4] = target: T2, Rat recombinant α2,6(N)ST (Rattus norvegicus, UniProt P13721); assay: Sialyltransferase assay with cloned α2,6(N)ST; format: biochemical; settings: Table I; acceptor 7.5 mM; sialylated product quantitated on Biogel P2 column
T2 construct: purchased Calbiochem
T2 sequence (P13721 1-403): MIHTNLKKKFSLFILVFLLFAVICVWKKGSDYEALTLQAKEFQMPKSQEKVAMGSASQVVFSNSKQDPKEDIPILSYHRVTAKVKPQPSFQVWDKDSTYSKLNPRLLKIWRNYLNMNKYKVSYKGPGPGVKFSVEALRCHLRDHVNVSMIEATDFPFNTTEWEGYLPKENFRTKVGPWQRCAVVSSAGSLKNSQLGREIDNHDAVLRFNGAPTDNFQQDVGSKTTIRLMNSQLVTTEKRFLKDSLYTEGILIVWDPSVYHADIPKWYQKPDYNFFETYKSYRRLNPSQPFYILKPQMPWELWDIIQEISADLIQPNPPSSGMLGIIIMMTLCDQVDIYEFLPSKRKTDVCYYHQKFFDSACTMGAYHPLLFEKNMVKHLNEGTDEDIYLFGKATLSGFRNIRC
Method: Rat recombinant α2,3(O)ST, α2,3(N)ST and α2,6(N)ST were purchased from Calbiochem and stored at either −20° C. or −70° C. as recommended by the supplier. […] 10 μl aliquots of the diluted enzymes were used in the assays run in duplicate.
The incubation mixtures run in duplicate contained 0.1M NaCacodylate buffer pH6.0, the acceptor (typically at 7.5 mM, or as indicated in some experiments), CMP-[9 ^3H] NeuAc (typically 0.2 μci; 20 μci/nmol or as indicated in some experiments) and the enzyme in a total volume of 20 μl. The control incubation mixtures contained everything except the acceptor. Incubation was carried out for 2 h at 37° C. The enzymatic transfer of [9-^3H] NeuAc to a typical acceptor was linear for 2 h and less than 30% CMP-[9-^3H] NeuAc was utilized. Chromatography, using either Dowex-1-Formate, Sep-Pak C18 or Biogel P2, was applied to separate radioactive product from un-reacted [9-^3H] NeuAc as described below.
The radioactive products from neutral allyl and methyl glycosides as well as non-glycosides were measured by fractionation on Dowex-1-Formate (Bio-Rad: AG-1X8; 200-400 mesh; format form) as follows: The incubation mixture was diluted with 1.0 ml water and passed through AG-1-formate column (1.0 ml bed volume in a Pasteur pipet which had been washed with 5 ml of 2M Formic acid followed by 10 ml water). The column was washed twice with 1.0 ml water after the entry of the sample and then eluted with 3.0 ml of 0.1M NaCl. The radioactivity present in water and 0.1M NaCl eluates were measured separately using 3a70 scintillation cocktail (Research Products International, Mount Prospect, Ill.) and a Beckman LS6500 scintillation counter. The CPM values were corrected by subtracting the blank CPM. Any radioactivity present in the water eluate (as noticed in the case of some methylglycosides) was added to the corresponding CPM value of 0.1M NaCl eluate. The radioactive products from sulfated and/or sialylated methylglycosides were also measured by the above procedure, only the elution of the AG-1-Formate column was continued further with 3.0 ml of 0.2M NaCl for achieving a complete elution of the radioactive product, a correction being made as before by subtracting the corresponding blank values.
The radioactive products from benzylglycosides and monosialylated benzylglycosides were measured by hydrophobic chromatography on Sep-Pak C18 cartridge (Waters, Milford, Mass.) and eluting the product with 3.0 ml methanol (30). The radioactivity was determined by liquid scintillation as above.
For such work, a Biogel P2 column (Fine Mesh; 1.0×116.0 cm) was used with 0.1M pyridine acetate pH5.4 as the eluent at room temperature. The effluent fractions were monitored for radioactivity and the first peak containing radioactivity was collected, lyophilized to dryness, dissolved in 200 μl of water and stored frozen at −20° C. for thin layer chromatography (TLC) and other experimentation.

[5] = Table II, acceptor 0.75 mM, relative to Galβ1,3GalNAcα-O-Bn
[6] = Table II, acceptor 7.5 mM, relative to Galβ1,3GalNAcα-O-Bn

In the case of `CC(=O)N[C@H]1[C@@H](OCc2ccccc2)O[C@H](CO)[C@H](O)[C@@H]1O[C@@H]1O[C@H](C)[C@H](O)[C@H](O)[C@H]1O` [D-Fucβ1,3GalNAcα-O-Bn], the “acceptor efficiency for cloned α2,3(O)ST” value [1] is reported as 100%, the Km [2] is reported as 210 µM and the Vmax [2] is reported as 1250 pmol/h.
In the case of `CC(=O)N[C@H]1[C@@H](OCc2ccccc2)O[C@H](CO)[C@H](O)[C@@H]1O[C@@H]1O[C@H](CO)[C@H](O)[C@H](O)[C@H]1O` [Galβ1,3GalNAcα-O-Bn], the “Radioactivity incorporated (100% value) Cloned α2,3(O)ST” value ([1]; Table II, acceptor 0.75 mM) is reported as “(42550 CPM)”, the “Radioactivity incorporated (100% value) Cloned α2,3(O)ST” value ([1]; Table II, acceptor 7.5 mM) is reported as “(43600 CPM)” and the “Sialyltransferase activity (%) Cloned α2,3(O)ST” value [2, 5] is reported as 100.0^8%. For the same compound, the “Sialyltransferase activity (%) Cloned α2,3(O)ST” value [2, 6] was 100.0^8%, the “Radioactivity incorporated (100% value) LNCaP α2,3(O)ST” value ([3]; Table II, acceptor 0.75 mM) was “(30490 CPM)” and the “Sialyltransferase activity (%) LNCaP α2,3(O)ST” value [3, 5] was 100.0%. For the same compound, the “Radioactivity incorporated (100% value) LNCaP α2,3(O)ST” value ([3]; Table II, acceptor 7.5 mM) was “(30600 CPM)” and the “Sialyltransferase activity (%) LNCaP α2,3(O)ST” value [3, 6] was 100.0%.
`CC(=O)N[C@H]1[C@H](OC[C@H]2O[C@H](OCc3ccccc3)[C@H](NC(C)=O)[C@@H](O[C@@H]3O[C@H](CO)[C@H](O)[C@H](O)[C@H]3O)[C@H]2O)O[C@H](CO)[C@@H](O[C@@H]2O[C@H](CO)[C@H](O)[C@H](OS(=O)(=O)O)[C@H]2O)[C@@H]1O` [3-O-SulfoGalβ1,4GlcNAcβ1,6(Galβ1,3)GalNAcα-O-Bn] was tested, and the “Sialyltransferase activity (%) Cloned α2,3(O)ST” value ([1]; acceptor 7.5 mM) was 70.3^e,6% and the “Sialyltransferase activity (%) Cloned α2,3(O)ST” value ([1]; acceptor 7.5 mM, listed as 3-O-sulfoGalβ1,4GlcNAcβ1,6(Galβ1,3)GalNAcα-O-Bn) was 70.3%.
In the case of `CC(=O)N[C@H]1[C@H](OC[C@H]2O[C@H](OCc3ccccc3)[C@H](NC(C)=O)[C@@H](O[C@@H]3O[C@H](CO)[C@H](O)[C@H](O)[C@H]3O)[C@H]2O)O[C@H](COS(=O)(=O)O)[C@@H](O)[C@@H]1O` [6-O-SulfoGlcNAcβ1,6(Galβ1,3)GalNAcα-O-Bn], the “Sialyltransferase activity (%) Cloned α2,3(O)ST” value ([1]; acceptor 7.5 mM) is reported as 49.4% and 49.4^e,5%.
For `C=CCO[C@H]1O[C@H](CO[C@@H]2O[C@H](CO)[C@@H](O)[C@H](O)[C@H]2NC(C)=O)[C@H](O)[C@H](O[C@@H]2O[C@H](CO)[C@H](O)[C@H](O)[C@H]2O)[C@H]1NC(C)=O` [Galβ1,3(GlcNAcβ1,6)GalNAcα-O—Al], the “Radioactivity incorporated (100% value) Cloned α2,3(O)ST” value ([1]; Table IV, compound 7.5 mM) was 29860 CPM, the “Sialyltransferase activity (%) Cloned α2,3(O)ST” value ([2]; Table I, acceptor 7.5 mM, 100% = 40560 CPM (3-O-MeGalβ1,4GlcNAcβ1,6(Galβ1,3)GalNAcα-O-Bn)) was 120.5^1% and the “Sialyltransferase activity (%) Cloned α2,3(O)ST” value ([2]; Table IV, compound 7.5 mM, relative to Galβ1,3(GlcNAcβ1,6)GalNAcα-O—Al) was 100.0%. For the same compound, the “Sialyltransferase activity (%) LNCaP α2,3(O)ST” value ([3]; Table I, acceptor 7.5 mM, 100% = 30930 CPM (3-O-MeGalβ1,4GlcNAcβ1,6(Galβ1,3)GalNAcα-O-Bn)) was 60.4%.
`CC(=O)N[C@H]1[C@H](OC[C@H]2O[C@H](OCc3ccccc3)[C@H](NC(C)=O)[C@@H](O[C@@H]3O[C@H](CO)[C@H](O)[C@H](OS(=O)(=O)O)[C@H]3O)[C@H]2O)O[C@H](CO)[C@@H](O[C@@H]2O[C@H](CO)[C@H](O)[C@H](O)[C@H]2O)[C@@H]1O` [Galβ1,4GlcNAcβ1,6(3-O-SulfoGalβ1,3)GalNAcα-O-Bn] was tested, and the “Sialyltransferase activity (%) Cloned α2,3(O)ST” value ([1]; acceptor 7.5 mM) was 33.1^e,7% and the “Sialyltransferase activity (%) Cloned α2,6(N)ST” value [4] was 127.4^e,18%.
In the case of `CC(=O)N[C@H]1[C@H](OC[C@H]2O[C@H](OCc3ccccc3)[C@H](NC(C)=O)[C@@H](O[C@@H]3O[C@H](C)[C@H](O)[C@H](O)[C@H]3O)[C@H]2O)O[C@H](CO)[C@@H](O)[C@@H]1O` [D-Fucβ1,3(GlcNAcβ1.6)GalNAcα-O-Bn], the “acceptor efficiency for cloned α2,3(O)ST” value [1] is reported as 100%, the Km [2] is reported as 280 µM and the Vmax [2] is reported as 1562 pmol/h.
